Laboratory results as given in the NIST ThermoML archive (doi:10.1021/je030147g).

What was measured:
[1] = xn = mol fraction of the nth substance listed; conditions: 101.33 kPa, Liquid
[2] = refractive index (Na D-line) (dimensionless); xn = mol fraction of the nth substance listed; conditions: 101.33 kPa, Liquid

ClC=C(Cl)Cl [trichloroethene] + CCCCN(CCCC)CCCC
Conditions	mass density, 298.15 K [kg/m3]	mass density, 303.15 K [kg/m3]	mass density, 308.15 K [kg/m3]	refractive index, 298.15 K	refractive index, 303.15 K	refractive index, 308.15 K	speed of sound, 298.15 K [m/s]	viscosity, 298.15 K [mPa·s]	viscosity, 303.15 K [mPa·s]	viscosity, 308.15 K [mPa·s]
[1], x2 = 0	1456.7	1447.1	1439.5	–	–	–	1028	0.595	0.571	0.549
[1], x2 = 0.0996	1299.3	1291.8	1284.4	–	–	–	1054	0.652	0.622	0.592
[1], x2 = 0.1953	1186.7	1180.1	1173.3	–	–	–	1084	0.713	0.675	0.637
[1], x2 = 0.2913	1098.3	1092.1	1086	–	–	–	1108	0.776	0.73	0.684
[1], x2 = 0.3902	1025.1	1019.6	1013.9	–	–	–	1129	0.842	0.788	0.734
[1], x2 = 0.4875	966.3	961	955.8	–	–	–	1151	0.909	0.846	0.783
[1], x2 = 0.5906	914.7	909.8	904.9	–	–	–	1170	0.978	0.907	0.835
[1], x2 = 0.6843	875	870.3	865.7	–	–	–	1187	1.041	0.962	0.882
[1], x2 = 0.7846	838.1	833.7	829.1	–	–	–	1205	1.105	1.018	0.93
[1], x2 = 0.8835	806.5	802.2	797.8	–	–	–	1227	1.167	1.071	0.976
[2], x2 = 0	–	–	–	1.4752	1.4722	1.469	–	–	–	–
[2], x2 = 0.0996	–	–	–	1.4632	1.4604	1.4576	–	–	–	–
[2], x2 = 0.1953	–	–	–	1.4563	1.453	1.4495	–	–	–	–
[2], x2 = 0.2913	–	–	–	1.4502	1.4469	1.4436	–	–	–	–
[2], x2 = 0.3902	–	–	–	1.4448	1.4417	1.4386	–	–	–	–
[2], x2 = 0.4875	–	–	–	1.4402	1.4377	1.4352	–	–	–	–
[2], x2 = 0.5906	–	–	–	1.437	1.4343	1.4317	–	–	–	–
[2], x2 = 0.6843	–	–	–	1.4346	1.4315	1.4284	–	–	–	–
[2], x2 = 0.7846	–	–	–	1.4318	1.4295	1.427	–	–	–	–
[2], x2 = 0.8835	–	–	–	1.4298	1.4272	1.4246	–	–	–	–

C1CCOC1 [tetrahydrofuran] + CCCCN(CCCC)CCCC
x2 = 0
Conditions	mass density, 298.15 K [kg/m3]	mass density, 303.15 K [kg/m3]	mass density, 308.15 K [kg/m3]	refractive index, 298.15 K	refractive index, 303.15 K	refractive index, 308.15 K	speed of sound, 298.15 K [m/s]	viscosity, 298.15 K [mPa·s]	viscosity, 303.15 K [mPa·s]	viscosity, 308.15 K [mPa·s]
[1]	882.9	877.5	871.2	–	–	–	1288	0.485	0.46	0.439
[2]	–	–	–	1.4049	1.4026	1.3998	–	–	–	–

CCCCN(CCCC)CCCC [tributylamine] + C1CCOC1
Conditions	mass density, [1] [kg/m3]	refractive index, [2]	speed of sound, [1] [m/s]	viscosity, [1] [mPa·s]
298.15 K, x1 = 0.1033	853.3	1.412	1283	0.571
298.15 K, x1 = 0.2033	833.4	1.415	1278	0.656
298.15 K, x1 = 0.3041	818.9	1.418	1274	0.741
298.15 K, x1 = 0.4012	808.1	1.42	1271	0.818
298.15 K, x1 = 0.5024	799.2	1.4229	1269	0.897
298.15 K, x1 = 0.5974	792.5	1.4235	1267	0.967
298.15 K, x1 = 0.6814	787.5	1.4249	1266	1.028
298.15 K, x1 = 0.7898	782.1	1.4265	1264	1.1
298.15 K, x1 = 0.8941	777.8	1.4269	1263	1.167
298.15 K, x1 = 1	773.9	1.4276	1262	1.239
303.15 K, x1 = 0.1033	847.9	1.4094	–	0.539
303.15 K, x1 = 0.2033	828.4	1.4141	–	0.618
303.15 K, x1 = 0.3041	814.2	1.4155	–	0.693
303.15 K, x1 = 0.4012	803.5	1.4178	–	0.763
303.15 K, x1 = 0.5024	794.7	1.4203	–	0.833
303.15 K, x1 = 0.5974	788.2	1.4211	–	0.896
303.15 K, x1 = 0.6814	783.1	1.4226	–	0.949
303.15 K, x1 = 0.7898	777.9	1.4238	–	1.014
303.15 K, x1 = 0.8941	773.6	1.4246	–	1.071
303.15 K, x1 = 1	769.2	1.4254	–	1.124
308.15 K, x1 = 0.1033	842.5	1.4068	–	0.509
308.15 K, x1 = 0.2033	823.5	–	–	0.581
308.15 K, x1 = 0.3041	809.3	1.413	–	0.646
308.15 K, x1 = 0.4012	798.9	1.4156	–	0.708
308.15 K, x1 = 0.5024	790.3	1.4178	–	0.769
308.15 K, x1 = 0.5974	783.8	1.4188	–	0.825
308.15 K, x1 = 0.6814	778.9	1.4203	–	0.871
308.15 K, x1 = 0.7898	773.6	1.4212	–	0.928
308.15 K, x1 = 0.8941	769.4	1.4224	–	0.976
308.15 K, x1 = 1	765.7	1.4228	–	1.02
